Reference: the NIST ThermoML archive (doi:10.1021/je020131a)
Several values for one entry are separate records, joined by “and”; a condition that tells them apart may be missing. Equal values may be shown once. Numbers after ± are expanded uncertainties.

Legend:
[1] = Liquid; for viscosity: 101.3 kPa, Falling or rolling sphere viscometry; for mass density: 101.33 kPa, Vibrating tube method
[2] = xn = mol fraction of the nth substance listed; details: 101.3 kPa, Liquid, Falling or rolling sphere viscometry

SMILES: C1CCCCC1 [cyclohexane]
- viscosity ([1]; 293.15 K): 0.976 ± 0.021 mPa·s
- viscosity ([1]; 298.15 K): 0.894 ± 0.021 mPa·s
- mass density ([1]; 298.15 K): 773.8 ± 0.3 kg/m3
- viscosity ([1]; 303.15 K): 0.813 ± 0.021 mPa·s
- viscosity ([1]; 313.15 K): 0.697 ± 0.021 mPa·s

SMILES: CCOC(=O)OCC [diethyl carbonate]
- viscosity ([1]; 293.15 K): 0.795 ± 0.021 mPa·s
- viscosity ([1]; 298.15 K): 0.749 ± 0.021 mPa·s
- mass density ([1]; 298.15 K): 969.1 ± 0.3 kg/m3
- viscosity ([1]; 303.15 K): 0.699 ± 0.021 mPa·s
- viscosity ([1]; 313.15 K): 0.623 ± 0.021 mPa·s

SMILES: COC(=O)OC [dimethyl carbonate]
- viscosity ([1]; 293.15 K): 0.626 ± 0.021 mPa·s
- viscosity ([1]; 298.15 K): 0.585 ± 0.021 mPa·s
- mass density ([1]; 298.15 K): 1063.5 ± 0.6 kg/m3
- viscosity ([1]; 303.15 K): 0.536 ± 0.021 mPa·s
- viscosity ([1]; 313.15 K): 0.494 ± 0.02 mPa·s

SMILES: COC(=O)OC [dimethyl carbonate] + CCCCCCCC
- viscosity ([2]; 293.15 K, x1 = 0.0513): 0.532 ± 0.021 mPa·s
- viscosity ([2]; 293.15 K, x1 = 0.0997): 0.524 ± 0.021 mPa·s
- viscosity ([2]; 293.15 K, x1 = 0.2027): 0.508 ± 0.02 mPa·s
- viscosity ([2]; 293.15 K, x1 = 0.3063): 0.506 ± 0.02 mPa·s
- viscosity ([2]; 293.15 K, x1 = 0.3994): 0.502 ± 0.02 mPa·s
- viscosity ([2]; 293.15 K, x1 = 0.5123): 0.507 ± 0.02 mPa·s
- viscosity ([2]; 293.15 K, x1 = 0.6078): 0.512 ± 0.021 mPa·s
- viscosity ([2]; 293.15 K, x1 = 0.7137): 0.524 ± 0.021 mPa·s
- viscosity ([2]; 293.15 K, x1 = 0.8055): 0.541 ± 0.021 mPa·s
- viscosity ([2]; 293.15 K, x1 = 0.9061): 0.575 ± 0.021 mPa·s
- viscosity ([2]; 293.15 K, x1 = 0.9516): 0.596 ± 0.021 mPa·s
- viscosity ([2]; 293.15 K, x1 = 1): 0.626 ± 0.021 mPa·s
- viscosity ([2]; 298.15 K, x1 = 0.0558): 0.504 ± 0.02 mPa·s
- viscosity ([2]; 298.15 K, x1 = 0.096): 0.498 ± 0.02 mPa·s
- viscosity ([2]; 298.15 K, x1 = 0.1488): 0.489 ± 0.02 mPa·s
- viscosity ([2]; 298.15 K, x1 = 0.2289): 0.478 ± 0.02 mPa·s
- viscosity ([2]; 298.15 K, x1 = 0.2947): 0.477 ± 0.02 mPa·s
- viscosity ([2]; 298.15 K, x1 = 0.4216): 0.474 ± 0.02 mPa·s
- viscosity ([2]; 298.15 K, x1 = 0.4883): 0.475 ± 0.02 mPa·s
- viscosity ([2]; 298.15 K, x1 = 0.5931): 0.479 ± 0.02 mPa·s
- viscosity ([2]; 298.15 K, x1 = 0.6867): 0.491 ± 0.02 mPa·s
- viscosity ([2]; 298.15 K, x1 = 0.7879): 0.509 ± 0.021 mPa·s
- viscosity ([2]; 298.15 K, x1 = 0.8873): 0.541 ± 0.021 mPa·s
- viscosity ([2]; 298.15 K, x1 = 0.9502): 0.561 ± 0.021 mPa·s
- viscosity ([2]; 298.15 K, x1 = 1): 0.585 ± 0.021 mPa·s
- viscosity ([2]; 303.15 K, x1 = 0.0519): 0.478 ± 0.02 mPa·s
- viscosity ([2]; 303.15 K, x1 = 0.0827): 0.474 ± 0.02 mPa·s
- viscosity ([2]; 303.15 K, x1 = 0.1947): 0.457 ± 0.02 mPa·s
- viscosity ([2]; 303.15 K, x1 = 0.2829): 0.452 ± 0.02 mPa·s
- viscosity ([2]; 303.15 K, x1 = 0.3948): 0.45 ± 0.02 mPa·s
- viscosity ([2]; 303.15 K, x1 = 0.4942): 0.448 ± 0.02 mPa·s
- viscosity ([2]; 303.15 K, x1 = 0.5964): 0.45 ± 0.02 mPa·s
- viscosity ([2]; 303.15 K, x1 = 0.6983): 0.46 ± 0.02 mPa·s
- viscosity ([2]; 303.15 K, x1 = 0.7886): 0.473 ± 0.02 mPa·s
- viscosity ([2]; 303.15 K, x1 = 0.8946): 0.5 ± 0.02 mPa·s
- viscosity ([2]; 303.15 K, x1 = 0.9545): 0.52 ± 0.021 mPa·s
- viscosity ([2]; 303.15 K, x1 = 1): 0.536 ± 0.021 mPa·s
- viscosity ([2]; 313.15 K, x1 = 0.0512): 0.432 ± 0.02 mPa·s
- viscosity ([2]; 313.15 K, x1 = 0.1005): 0.43 ± 0.02 mPa·s
- viscosity ([2]; 313.15 K, x1 = 0.186): 0.419 ± 0.02 mPa·s
- viscosity ([2]; 313.15 K, x1 = 0.301): 0.413 ± 0.02 mPa·s
- viscosity ([2]; 313.15 K, x1 = 0.4072): 0.409 ± 0.02 mPa·s
- viscosity ([2]; 313.15 K, x1 = 0.5002): 0.41 ± 0.02 mPa·s
- viscosity ([2]; 313.15 K, x1 = 0.6042): 0.417 ± 0.02 mPa·s
- viscosity ([2]; 313.15 K, x1 = 0.709): 0.43 ± 0.02 mPa·s
- viscosity ([2]; 313.15 K, x1 = 0.7993): 0.446 ± 0.02 mPa·s
- viscosity ([2]; 313.15 K, x1 = 0.8465): 0.459 ± 0.02 mPa·s
- viscosity ([2]; 313.15 K, x1 = 0.9524): 0.485 ± 0.02 mPa·s
- viscosity ([2]; 313.15 K, x1 = 1): 0.494 ± 0.02 mPa·s

SMILES: CCCCCCC [heptane]
- viscosity ([1]; 293.15 K): 0.411 ± 0.02 mPa·s
- viscosity ([1]; 298.15 K): 0.388 ± 0.02 mPa·s
- mass density ([1]; 298.15 K): 679.4 ± 0.3 kg/m3
- viscosity ([1]; 303.15 K): 0.37 ± 0.02 mPa·s and 0.375 ± 0.02 mPa·s
- viscosity ([1]; 313.15 K): 0.334 ± 0.02 mPa·s

SMILES: CCCCCCC [heptane] + CCOC(=O)OCC
- viscosity ([2]; 293.15 K, x2 = 0): 0.411 ± 0.02 mPa·s
- viscosity ([2]; 298.15 K, x2 = 0): 0.388 ± 0.02 mPa·s
- viscosity ([2]; 303.15 K, x2 = 0): 0.375 ± 0.02 mPa·s
- viscosity ([2]; 313.15 K, x2 = 0): 0.334 ± 0.02 mPa·s

SMILES: CCCCCCC [heptane] + COC(=O)OC
- viscosity ([2]; 293.15 K, x2 = 0): 0.411 ± 0.02 mPa·s
- viscosity ([2]; 298.15 K, x2 = 0): 0.388 ± 0.02 mPa·s
- viscosity ([2]; 303.15 K, x2 = 0): 0.37 ± 0.02 mPa·s
- viscosity ([2]; 313.15 K, x2 = 0): 0.334 ± 0.02 mPa·s

SMILES: CCCCCC [hexane]
- viscosity ([1]; 293.15 K): 0.313 ± 0.02 mPa·s
- viscosity ([1]; 298.15 K): 0.301 ± 0.02 mPa·s
- mass density ([1]; 298.15 K): 654.8 ± 0.3 kg/m3
- viscosity ([1]; 303.15 K): 0.282 ± 0.02 mPa·s
- viscosity ([1]; 313.15 K): 0.258 ± 0.02 mPa·s

SMILES: CCCCCC [hexane] + CCOC(=O)OCC
- viscosity ([2]; 293.15 K, x2 = 0): 0.313 ± 0.02 mPa·s
- viscosity ([2]; 298.15 K, x2 = 0): 0.301 ± 0.02 mPa·s
- viscosity ([2]; 303.15 K, x2 = 0): 0.282 ± 0.02 mPa·s
- viscosity ([2]; 313.15 K, x2 = 0): 0.258 ± 0.02 mPa·s

SMILES: CCCCCC [hexane] + COC(=O)OC
- viscosity ([2]; 293.15 K, x2 = 0): 0.313 ± 0.02 mPa·s
- viscosity ([2]; 298.15 K, x2 = 0): 0.301 ± 0.02 mPa·s
- viscosity ([2]; 303.15 K, x2 = 0): 0.282 ± 0.02 mPa·s
- viscosity ([2]; 313.15 K, x2 = 0): 0.258 ± 0.02 mPa·s

SMILES: CCCCCCCC [octane]
- viscosity ([1]; 293.15 K): 0.545 ± 0.021 mPa·s
- viscosity ([1]; 298.15 K): 0.513 ± 0.021 mPa·s
- mass density ([1]; 298.15 K): 698.5 ± 0.4 kg/m3
- viscosity ([1]; 303.15 K): 0.484 ± 0.02 mPa·s
- viscosity ([1]; 313.15 K): 0.434 ± 0.02 mPa·s

SMILES: CCCCCCCC [octane] + CCOC(=O)OCC
- viscosity ([2]; 293.15 K, x2 = 0): 0.545 ± 0.021 mPa·s
- viscosity ([2]; 298.15 K, x2 = 0): 0.513 ± 0.021 mPa·s
- viscosity ([2]; 303.15 K, x2 = 0): 0.484 ± 0.02 mPa·s
- viscosity ([2]; 313.15 K, x2 = 0): 0.434 ± 0.02 mPa·s

SMILES: CCCCCCCC [octane] + COC(=O)OC
- viscosity ([2]; 293.15 K, x2 = 0): 0.545 ± 0.021 mPa·s
- viscosity ([2]; 298.15 K, x2 = 0): 0.513 ± 0.021 mPa·s
- viscosity ([2]; 303.15 K, x2 = 0): 0.484 ± 0.02 mPa·s
- viscosity ([2]; 313.15 K, x2 = 0): 0.434 ± 0.02 mPa·s
